target: human APJ receptor (Homo sapiens (Human), UniProt P35414); assay: biochemical; type: biochemical; conditions: [35S]GTPγS binding, CHO membranes expressing human APJ receptor; read-out: Activity hAPJ SPA EC50 IP
Procedure, shortened: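 GTPγS binding on membranes from CHO cells stably expressing FLAG-tagged human APJ, with optimized GDP, MgCl2 and NaCl; incubated 90 min at RT before imaging read-out.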

human APJ receptor, sequence (P35414 whole entry): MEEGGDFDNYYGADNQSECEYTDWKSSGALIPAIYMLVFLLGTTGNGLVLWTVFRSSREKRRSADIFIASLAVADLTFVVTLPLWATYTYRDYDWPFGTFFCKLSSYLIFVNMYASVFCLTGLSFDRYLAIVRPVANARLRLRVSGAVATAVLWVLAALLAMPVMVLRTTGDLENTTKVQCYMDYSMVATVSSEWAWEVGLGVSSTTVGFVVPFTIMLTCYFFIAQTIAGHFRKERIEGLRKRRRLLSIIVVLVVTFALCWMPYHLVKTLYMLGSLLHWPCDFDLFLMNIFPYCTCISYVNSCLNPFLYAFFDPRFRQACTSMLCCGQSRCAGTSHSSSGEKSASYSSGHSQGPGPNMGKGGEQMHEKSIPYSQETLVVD

Q: COc1cccc(OC)c1-n1c(NS(=O)(=O)[C@@H](C)[C@H](OC)c2ncc(Cl)cn2)nnc1-c1noc2ccccc12 [Example 83.0, (1R,2S)-N-(5-(benzo[d]isoxazol-3-yl)-4-(2,6-dimethoxyphenyl)-4H-1,2,4-triazol-3-yl)-1-(5-chloropyrimidin-2-yl)-1-methoxypropane-2-sulfonamide] was tested. Which EC50 did it give?
A: The EC50 was 0.0019 µM.

Q: Which EC50 does the source give for COc1cccc(OC)c1-n1c(NS(=O)(=O)[C@H](C)Cc2ncc(F)cn2)nnc1-c1cnccn1 (single isomer, unassigned) [Example 29.0, (R)-N-(4-(2,6-dimethoxyphenyl)-5-(pyrazin-2-yl)-4H-1,2,4-triazol-3-yl)-1-(5-fluoropyrimidin-2-yl)propane-2-sulfonamide or (S)-N-(4-(2,6-dimethoxyphenyl)-5-(pyrazin-2-yl)-4H-1,2,4-triazol-3-yl)-1-(5-fluoropyrimidin-2-yl)propane-2-sulfonamide] here?
A: The EC50 was 0.047 µM.

Q: With COc1cccc(OC)c1-n1c(NS(=O)(=O)[C@@H](C)[C@H](OC)c2ncc(Cl)cn2)nnc1-c1cnn2ccccc12 [Example 423.0, (1R,2S)-1-(5-chloropyrimidin-2-yl)-N-(4-(2,6-dimethoxyphenyl)-5-(pyrazolo [1,5-a]pyridin-3-yl)-4H-1,2,4-triazol-3-yl)-1-methoxypropane-2-sulfonamide] as the compound, how does the EC50 read?
A: The EC50 was 0.00068 µM.

Q: How did the EC50 turn out when COc1cccc(OC)c1-n1c(NS(=O)(=O)CCc2ccc(Cl)cc2)nnc1-c1nc(C)cs1 [Example 142.0, 2-(4-chlorophenyl)-N-(4-(2,6-dimethoxyphenyl)-5-(4-methylthiazol-2-yl)-4H-1,2,4-triazol-3-yl)ethanesulfonamide] was run?
A: The EC50 was 0.017 µM.

Q: Which EC50 does the source give for O=S(=O)(Cc1ccc(Cl)cc1)Nc1nnc(-c2cccs2)n1-c1ccccc1OC(F)F [Example 237.0, 1-(4-chlorophenyl)-N-(4-(2-(difluoromethoxy)phenyl)-5-(2-thiophenyl)-4H-1,2,4-triazol-3-yl)methanesulfonamide] here?
A: Its EC50 is over 12.5 µM.

Q: How did the EC50 turn out when COc1ccc(Br)cc1-n1c(NS(=O)(=O)CCc2ccc(Cl)cc2)nnc1-c1cccs1 [Example 133.0, N-(4-(5-Bromo-2-methoxyphenyl)-5-(thiophen-2-yl)-4H-1,2,4-triazol-3-yl)-2-(4-chlorophenyl)ethanesulfonamide] was run?
A: The EC50 was 0.363 µM.

Q: For CO[C@H](c1ncc(Cl)cn1)[C@H](C)S(=O)(=O)Nc1nnc(-c2ccn(C)n2)n1-c1c(F)cccc1F [Example 229.0, (1R,2S)-1-(5-chloro-2-pyrimidinyl)-N-(4-(2,6-difluorophenyl)-5-(1-methyl-1H-pyrazol-3-yl)-4H-1,2,4-triazol-3-yl)-1-methoxy-2-propanesulfonamide], which EC50 is on record?
A: The EC50 was 0.0031 µM.

Q: Which EC50 does the source give for COc1cccc(OC)c1-n1c(NS(=O)(=O)[C@@H](C)[C@H](C)c2ncc(F)cn2)nnc1-c1cnn(C)c1 [Example 212.0, (2S,3R)-N-(4-(2,6-dimethoxyphenyl)-5-(1-methyl-1H-pyrazol-4-yl)-4H-1,2,4-triazol-3-yl)-3-(5-fluoro-2-pyrimidinyl)-2-butanesulfonamide] here?
A: The EC50 was 0.00042 µM.

Q: With CCOC(=O)c1ccc(OC)c(-n2c(NS(=O)(=O)CCc3ccc(Cl)cc3)nnc2-c2cccs2)c1 [Example 28.0, Ethyl 3-(3-(2-(4-chlorophenyl)ethylsulfonamido)-5-(thiophen-2-yl)-4H-1,2,4-triazol-4-yl)-4-methoxybenzoate] as the compound, how does the EC50 read?
A: Its EC50 is 0.006 µM.

Q: COc1ccccc1-n1c(NS(=O)(=O)Cc2ccc(Cl)cc2)nnc1-c1cccs1 [Example 234.0, 1-(4-chlorophenyl)-N-(4-(2-methoxyphenyl)-5-(2-thiophenyl)-4H-1,2,4-triazol-3-yl)methanesulfonamide] was tested. Which EC50 did it give?
A: Its EC50 is 0.34 µM.

Q: COc1cccc(OC)c1-n1c(NS(=O)(=O)[C@H](C)Cc2ncc(F)cn2)nnc1-c1nc(C2CC2)cs1 (single isomer, unassigned) [Example 160.0, (R)-N-(5-(4-cyclopropylthiazol-2-yl)-4-(2,6-dimethoxyphenyl)-4H-1,2,4-triazol-3-yl)-1-(5-fluoropyrimidin-2-yl)propane-2-sulfonamide or (S)-N-(5-(4-cyclopropylthiazol-2-yl)-4-(2,6-dimethoxyphenyl)-4H-1,2,4-triazol-3-yl)-1-(5-fluoropyrimidin-2-yl)propane-2-sulfonamide] was tested. Which EC50 did it give?
A: The EC50 was 0.002 µM.

Q: For COc1cccc(OC)c1-n1c(NS(=O)(=O)[C@H](C)[C@H](O)c2ncc(C)cn2)nnc1-c1nc(C)cs1 (single isomer, unassigned) [Example 316.0, (1R,2R)-N-(4-(2,6-dimethoxyphenyl)-5-(4-methylthiazol-2-yl)-4H-1,2,4-triazol-3-yl)-1-hydroxy-1-(5-methylpyrimidin-2-yl)propane-2-sulfonamide or (1S,2S)-N-(4-(2,6-dimethoxyphenyl)-5-(4-methylthiazol-2-yl)-4H-1,2,4-triazol-3-yl)-1-hydroxy-1-(5-methylpyrimidin-2-yl)propane-2-sulfonamide], which EC50 is on record?
A: Its EC50 is 0.081 µM.

Q: How did the EC50 turn out when “(R)-N-(4-(2,6-dimethoxyphenyl)-5-(pyrimidin-5-yl)-4H-1,2,4-triazol-3-yl)-1-(5-fluoropyrimidin-2-yl)propane-2-sulfonamide and (S)-N-(4-(2,6-dimethoxyphenyl)-5-(pyrimidin-5-yl)-4H-1,2,4-triazol-3-yl)-1-(5-fluoropyrimidin-2-yl)propane-2-sulfonamide [Example 48.0]” was run?
A: Its EC50 is 0.15 µM.

Q: COc1ccc([C@@H](C)[C@H](C)S(=O)(=O)Nc2nnc(-c3ccn(C)n3)n2-c2c(OC)cccc2OC)nc1 [Example 459.0, (2S,3R)-N-(4-(2,6-dimethoxyphenyl)-5-(1-methyl-1H-pyrazol-3-yl)-4H-1,2,4-triazol-3-yl)-3-(5-methoxy-2-pyridinyl)-2-butanesulfonamide] was tested. Which EC50 did it give?
A: The EC50 was 0.00033 µM.

Q: For “(1R,2S)-N-(4-(2,6-dimethoxyphenyl)-5-(1-methyl-1H-pyrazol-3-yl)-4H-1,2,4-triazol-3-yl)-1-(5-fluoro-2-pyridinyl)-1-hydroxy-2-propanesulfonamide and (1S,2R)-N-(4-(2,6-dimethoxyphenyl)-5-(1-methyl-1H-pyrazol-3-yl)-4H-1,2,4-triazol-3-yl)-1-(5-fluoro-2-pyridinyl)-1-hydroxy-2-propanesulfonamide [Example 25.0]”, which EC50 is on record?
A: Its EC50 is 0.015 µM.

Q: With Cc1cnc([C@@H](C)[C@H](C)S(=O)(=O)Nc2nnc(-c3noc4ccccc34)n2C2CCOCC2)nc1 [Example 84.0, (2S,3R)-N-(5-(benzo[d]isoxazol-3-yl)-4-(tetrahydro-2H-pyran-4-yl)-4H-1,2,4-triazol-3-yl)-3-(5-methylpyrimidin-2-yl)butane-2-sulfonamide] as the compound, how does the EC50 read?
A: Its EC50 is 0.26 µM.

Q: Which EC50 does the source give for CO[C@H](c1cnc(C)cn1)[C@H](C)S(=O)(=O)Nc1nnc(-c2ccn(C)n2)n1-c1c(F)cccc1F [Example 232.0, (1R,2S)-N-(4-(2,6-difluorophenyl)-5-(1-methyl-1H-pyrazol-3-yl)-4H-1,2,4-triazol-3-yl)-1-methoxy-1-(5-methyl-2-pyrazinyl)-2-propanesulfonamide] here?
A: The EC50 was 0.054 µM.

Q: COc1ncnc(OC)c1-n1c(NS(=O)(=O)[C@@H](C)[C@H](OC)c2ncc(Cl)cn2)nnc1-c1cnn2ccccc12 [Example 439.0, (1R,2S)-1-(5-chloropyrimidin-2-yl)-N-(4-(4,6-dimethoxypyrimidin-5-yl)-5-(pyrazolo[1,5-a]pyridin-3-yl)-4H-1,2,4-triazol-3-yl)-1-methoxypropane-2-sulfonamide] was tested. Which EC50 did it give?
A: The EC50 was 0.00082 µM.

Q: CO[C@H](c1ncc(Cl)cn1)[C@H](C)S(=O)(=O)Nc1nnc(-c2cnn3c2CCC3)n1C1CC1 [Example 478.0] was tested. Which EC50 did it give?
A: The EC50 was 0.011 µM.

Q: For COc1cccc(OC)c1-n1c(NS(=O)(=O)[C@@H](C)[C@H](C)c2ncc(F)cn2)nnc1-c1ccn(C(F)F)n1 [Example 194.0, (2S,3R)-N-(5-(1-(difluoromethyl)-1H-pyrazol-3-yl)-4-(2,6-dimethoxyphenyl)-4H-1,2,4-triazol-3-yl)-3-(5-fluoro-2-pyrimidinyl)-2-butanesulfonamide], which EC50 is on record?
A: The EC50 was 0.00048 µM.

Q: For COc1cccc(OC)c1-n1c(NS(=O)(=O)[C@H](C)[C@@H](C)c2ncc(Cl)cn2)nnc1-c1n[nH]c2ccccc12 [Example 430.0], which EC50 is on record?
A: The EC50 was 0.0028 µM.

Q: How did the EC50 turn out when COc1cccc(OC)c1-n1c(NS(=O)(=O)[C@H](C)Cc2ncc(F)cn2)nnc1-c1ccncn1 (single isomer, unassigned) [Example 38.0, (R)-N-(4-(2,6-dimethoxyphenyl)-5-(pyrimidin-4-yl)-4H-1,2,4-triazol-3-yl)-1-(5-fluoropyrimidin-2-yl)propane-2-sulfonamide or (R)-N-(4-(2,6-dimethoxyphenyl)-5-(pyrimidin-4-yl)-4H-1,2,4-triazol-3-yl)-1-(5-fluoropyrimidin-2-yl)propane-2-sulfonamide] was run?
A: The EC50 was 0.084 µM.

Q: For O=S(=O)(CCc1ccc(Cl)cc1)Nc1nnc(-c2cccs2)n1-c1ccccc1OC(F)F [Example 240.0, 2-(4-chlorophenyl)-N-(4-(2-(difluoromethoxy)phenyl)-5-(thiophen-2-yl)-4H-1,2,4-triazol-3-yl)ethanesulfonamide], which EC50 is on record?
A: Its EC50 is 1.31 µM.

Q: Which EC50 does the source give for COc1cccc(OC)c1-n1c(NS(=O)(=O)C[C@H](OC)c2ccc(Cl)cn2)nnc1-c1ccn(C)n1 (single isomer, unassigned) [Example 377.0, (R)-2-(5-Chloropyridin-2-yl)-N-(4-(2,6-dimethoxyphenyl)-5-(1-methyl-1H-pyrazol-3-yl)-4H-1,2,4-triazol-3-yl)-2-methoxyethanesulfonamide or (S)-2-(5-chloropyridin-2-yl)-N-(4-(2,6-dimethoxyphenyl)-5-(1-methyl-1H-pyrazol-3-yl)-4H-1,2,4-triazol-3-yl)-2-methoxyethanesulfonamide] here?
A: The EC50 was 0.0006 µM.

Q: With COc1cccc(OC)c1-n1c(NS(=O)(=O)[C@@H](C)[C@H](OC)c2ncc(C)cn2)nnc1-c1ccn(C(F)F)n1 [Example 203.0, (1R,2S)-N-(5-(1-(difluoromethyl)-1H-pyrazol-3-yl)-4-(2,6-dimethoxyphenyl)-4H-1,2,4-triazol-3-yl)-1-methoxy-1-(5-methyl-2-pyrimidinyl)-2-propanesulfonamide] as the compound, how does the EC50 read?
A: Its EC50 is 0.0021 µM.

Q: With CCc1nc(-c2nnc(NS(=O)(=O)CCc3ncc(F)cn3)n2-c2c(OC)cccc2OC)cs1 [Example 99.0, N-(4-(2,6-dimethoxyphenyl)-5-(2-ethylthiazol-4-yl)-4H-1,2,4-triazol-3-yl)-2-(5-fluoropyrimidin-2-yl)ethanesulfonamide] as the compound, how does the EC50 read?
A: The EC50 was 0.013 µM.

Reference: patent US11046680B1, “Heteroaryl-substituted triazoles as APJ receptor agonists” (priority 2016, dated 2021)
